Assay results taken from patent US20100298302A1, “NOVEL PROTEIN KINASE MODULATORS” (priority 2009, published 2010).
pIC50: −log10 of the molar value.

Legend:
recombinant PIM-1 = recombinant PIM-1 (Homo sapiens, UniProt P11309); assay: PIM-1 kinase assay; assay type: biochemical; settings: Table 5; read-out: PIM1 IC50
In short: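 Recombinant PIM-1 (1 ng) with 100 uM KKRNRTLTK peptide, 15 uM ATP plus [γ-33P]ATP, 10 mM Mg acetate, MOPS pH 7.0, 4% DMSO. Reaction 40 min at 23° C, quenched with phosphoric acid; labeled peptide captured on phosphocellulose filters and counted by scintillation.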

recombinant human CK2 = biological target: T1, recombinant human CK2 (Homo sapiens, UniProt P68400); assay: cell-free CK2 assay; assay type: biochemical
T1 construct: purchased Upstate
Experimental: Modulatory activity of compounds described herein was assessed in vitro in cell-free CK2 assays by the following method.
Test compounds in aqueous solution were added at a volume of 10 microliters, to a reaction mixture comprising 10 microliters Assay Dilution Buffer (ADB; 20 mM MOPS, pH 7.2, 25 mM beta-glycerolphosphate, 5 mM EGTA, 1 mM sodium orthovanadate and 1 mM dithiothreitol), 10 microliters of substrate peptide (RRRDDDSDDD, dissolved in ADB at a concentration of 1 mM), 10 microliters of recombinant human CK2 (25 ng dissolved in ADB; Upstate). Reactions were initiated by the addition of 10 microliters of ATP Solution (90% 75 mM MgCl2, 75 micromolar ATP dissolved in ADB; 10% [γ-^33P]ATP (stock 1 mCi/100 μl; 3000 Ci/mmol (Perkin Elmer) and maintained for 10 minutes at 30 degrees C. The reactions were quenched with 100 microliters of 0.75% phosphoric acid, then transferred to and filtered through a phosphocellulose filter plate (Millipore). After washing each well 5 times with 0.75% phosphoric acid, the plate was dried under vacuum for 5 min and, following the addition of 15 ul of scintilation fluid to each well, the residual radioactivity was measured using a Wallac luminescence counter.

recombinant human PIM2 = recombinant human PIM2 (Homo sapiens, UniProt Q9P1W9); assay: PIM-2 kinase assay; assay type: biochemical
Experimental: Test compounds dissolved and diluted in DMSO (2 μl) were added to a reaction mixture comprising 10 μl of 5× Reaction Buffer (40 mM MOPS pH 7.0, 5 mM EDTA), 10 μl of recombinant human PIM2 solution (4 ng PIM-2 dissolved in dilution buffer (20 mM MOPS pH 7.0; EDTA 1 mM; 5% Glycerol; 0.01% Brij 35; […]; […] 2-mercaptoethanol; 1 mg/ml BSA)) and 8 ul of water. Reactions were initiated by the addition of 10 ul of ATP Solution ([…] (15 mM MgCl2; 75 uM ATP) 1% ([γ-33P]ATP: Stock 1 mCi/100 μl; 3000 Ci/mmol (Perkin Elmer)) and 10 ul of substrate peptide solution (RSRSSYPAGT, dissolved in water at a concentration of 1 mM), Reactions were maintained for 10 min at 30° C. The reactions were quenched with 100 ul of 0.75% Phosphoric acid, then transferred to and filtered through a Phosphocellulose filter plate (Millipore, MSPH-N6B-50). After washing each well 4 times with 0.75% Phosphoric acid, scintillation fluid (20 uL) was added to each well and the residual radioactivity was measured using a Wallac luminescence counter.

FLT3 = biological target: T2, FLT3 (Homo sapiens, UniProt P36888); assay: FLT3 inhibition; assay type: biochemical
T2 sequence (P36888 27-993): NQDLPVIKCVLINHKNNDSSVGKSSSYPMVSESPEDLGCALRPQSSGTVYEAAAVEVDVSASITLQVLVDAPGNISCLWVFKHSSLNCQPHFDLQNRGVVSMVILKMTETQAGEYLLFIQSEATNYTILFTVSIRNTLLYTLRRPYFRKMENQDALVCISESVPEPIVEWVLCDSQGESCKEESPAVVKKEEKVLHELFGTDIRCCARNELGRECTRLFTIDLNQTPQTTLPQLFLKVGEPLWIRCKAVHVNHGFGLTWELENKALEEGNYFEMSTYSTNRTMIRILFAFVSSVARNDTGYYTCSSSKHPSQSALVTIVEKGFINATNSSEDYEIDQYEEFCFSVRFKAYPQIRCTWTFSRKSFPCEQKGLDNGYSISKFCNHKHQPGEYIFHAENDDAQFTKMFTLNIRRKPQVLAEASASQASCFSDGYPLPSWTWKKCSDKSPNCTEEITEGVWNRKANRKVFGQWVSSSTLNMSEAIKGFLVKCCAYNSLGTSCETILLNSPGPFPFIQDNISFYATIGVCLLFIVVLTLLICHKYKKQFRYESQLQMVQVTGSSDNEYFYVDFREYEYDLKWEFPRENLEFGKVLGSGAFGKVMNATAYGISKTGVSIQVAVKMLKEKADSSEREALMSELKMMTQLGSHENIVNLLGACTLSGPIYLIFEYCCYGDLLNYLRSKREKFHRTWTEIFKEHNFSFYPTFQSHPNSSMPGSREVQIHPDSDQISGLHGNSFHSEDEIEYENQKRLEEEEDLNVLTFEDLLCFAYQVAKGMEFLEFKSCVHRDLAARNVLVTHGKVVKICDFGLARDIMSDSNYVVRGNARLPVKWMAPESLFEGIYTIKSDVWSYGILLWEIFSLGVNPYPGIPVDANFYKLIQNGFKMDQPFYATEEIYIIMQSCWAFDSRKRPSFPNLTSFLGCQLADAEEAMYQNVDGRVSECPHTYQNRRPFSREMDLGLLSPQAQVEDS

[1] = system: K-562 human chronic myelogenous leukemia (CML) cells; assay: Alamar Blue cell proliferation assay, K-562; assay type: cell-based; settings: K562, Table 5
In short: (§1)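 Cells were seeded at 4,000–5,000/well and exposed to compound dilutions for 4 days at 37 °C, 5% CO2, humidified. Alamar Blue was added for 4 h, with fluorescence read at 544 nm excitation and 590 nm emission. Controls were untreated cells and medium-only wells.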

MV-4-11 = assay: Alamar Blue cell proliferation assay, MV-4-11; assay type: cell-based; settings: Homo sapiens, MV4-11; Table 5
In short: as §1

[2] = system: BxPC3 human pancreatic adenocarcinoma cells; assay: Alamar Blue cell proliferation assay, BxPC3; assay type: cell-based; settings: BXPC-3
Experimental: (§2) A representative cell-proliferation assay protocol using Alamar Blue dye (stored at 4° C., use 20 ul per well) is described hereafter.
(§3) a. Split and trypsinize cells.
(§4) b. Count cells using hemocytometer.
(§5) c. Plate 4,000-5,000 cells per well in 100 μl of medium and seed into a 96-well plate according to the following plate layout. Add cell culture medium only to wells B10 to B12. Wells B1 to B9 have cells but no compound added.
(§6) d. Add 100 μl of 2× drug dilution to each well in a concentration shown in the plate layout above. At the same time, add 100 μl of media into the control wells (wells B10 to B12). Total volume is 200 μl/well.
(§7) e. Incubate four (4) days at 37° C., 5% CO2 in a humidified incubator.
(§8) f. Add 20 μl Alamar Blue reagent to each well.
(§9) g. Incubate for four (4) hours at 37° C., 5% CO2 in a humidified incubator.
(§10) h. Record fluorescence at an excitation wavelength of 544 nm and emission wavelength of 590 nm using a microplate reader.
(§11) In the assays, cells are cultured with a test compound for approximately four days, the dye is then added to the cells and fluorescence of […] dye is detected after approximately four hours. Different types of cells can be utilized in the assays (e.g., HCT-116 human colorectal carcinoma cells, PC-3 human prostatic cancer cells, MDA-MB231 human breast cancer cells, K-562 human chronic myelogenous leukemia (CML) cells, MiaPaca human pancreatic carcinoma cells, MV-4 human acute myeloid leukemia cells, and BxPC3 human pancreatic adenocarcinoma cells).

MDA-MB45 = assay: Alamar Blue cell proliferation assay, MDA-MB45; assay type: cell-based
Experimental: as §2, §3, §4, §5, §6, §7, §8, §9, §10, §11

SUM-149PT = assay: Alamar Blue cell proliferation assay, SUM-149PT; assay type: cell-based; settings: Homo sapiens, SUM149PT
Experimental: as §2, §3, §4, §5, §6, §7, §8, §9, §10, §11

T1 sequence (P68400 whole entry): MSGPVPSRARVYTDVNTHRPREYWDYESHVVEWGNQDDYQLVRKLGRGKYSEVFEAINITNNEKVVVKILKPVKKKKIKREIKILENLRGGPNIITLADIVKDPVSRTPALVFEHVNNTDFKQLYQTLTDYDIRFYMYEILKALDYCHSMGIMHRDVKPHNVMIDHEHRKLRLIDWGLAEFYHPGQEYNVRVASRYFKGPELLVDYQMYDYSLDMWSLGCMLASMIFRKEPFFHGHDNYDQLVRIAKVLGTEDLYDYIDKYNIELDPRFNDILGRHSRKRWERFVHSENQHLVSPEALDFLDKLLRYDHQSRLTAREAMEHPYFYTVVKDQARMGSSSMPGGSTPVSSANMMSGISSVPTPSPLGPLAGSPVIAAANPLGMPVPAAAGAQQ
T1 sequence (P67870 whole entry partner): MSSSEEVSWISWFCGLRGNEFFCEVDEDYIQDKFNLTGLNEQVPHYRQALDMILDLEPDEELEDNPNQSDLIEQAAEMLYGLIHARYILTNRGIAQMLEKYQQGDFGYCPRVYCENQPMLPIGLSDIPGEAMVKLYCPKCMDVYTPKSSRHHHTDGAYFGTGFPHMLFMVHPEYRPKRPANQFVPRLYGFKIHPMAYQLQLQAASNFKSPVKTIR
Chain of recombinant human PIM2 (Q9P1W9 whole entry): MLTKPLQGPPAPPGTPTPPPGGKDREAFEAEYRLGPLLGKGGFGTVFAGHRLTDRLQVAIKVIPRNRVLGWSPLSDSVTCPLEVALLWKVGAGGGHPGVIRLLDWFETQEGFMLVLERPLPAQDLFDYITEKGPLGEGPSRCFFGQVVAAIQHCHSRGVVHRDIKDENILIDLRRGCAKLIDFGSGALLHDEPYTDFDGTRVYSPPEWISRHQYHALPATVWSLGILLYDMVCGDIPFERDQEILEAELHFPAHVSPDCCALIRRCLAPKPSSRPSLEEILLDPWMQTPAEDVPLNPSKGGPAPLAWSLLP
Chain of recombinant PIM-1 (P11309 whole entry): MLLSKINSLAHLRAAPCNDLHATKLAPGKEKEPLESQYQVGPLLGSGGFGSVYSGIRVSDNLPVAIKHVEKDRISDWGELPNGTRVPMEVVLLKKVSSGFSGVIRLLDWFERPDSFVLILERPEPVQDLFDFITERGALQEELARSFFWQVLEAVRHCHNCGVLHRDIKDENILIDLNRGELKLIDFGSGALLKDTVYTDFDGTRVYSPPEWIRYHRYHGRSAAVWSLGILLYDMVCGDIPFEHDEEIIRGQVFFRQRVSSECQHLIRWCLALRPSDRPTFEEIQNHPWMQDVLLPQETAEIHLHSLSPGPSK

- pIC50 (recombinant PIM-1): > 7.00
- pIC50 (recombinant human CK2): > 7.00
- pIC50 (recombinant human PIM2): > 7.00
- pIC50 (FLT3): < 5.00
- pIC50 [1]: < 5.00
- pIC50 (MV-4-11): > 5.30
- pIC50 [2]: > 5.00
- pIC50 (MDA-MB45): > 5.30
SMILES: Clc1ccccc1Nc1nc2c(-c3nnc[nH]3)cccc2n2cccc12
- pIC50 (SUM-149PT): > 5.30
